Among the data in BindingDB's records for patent US9694002 (Genentech Inc, 2017) are IC50 values, retold here.

Usually IC50 stands for the concentration that inhibits the measured activity by half. A higher IC50 goes with a need for much substance.

This assay concerns the target Sodium channel protein type 9 subunit alpha (Homo sapiens, UniProt Q15858). Description: Radioligand Binding Assay. The following applies: pH 7.4; 25 °C.

Sodium channel protein type 9 subunit alpha, sequence (Q15858 whole entry): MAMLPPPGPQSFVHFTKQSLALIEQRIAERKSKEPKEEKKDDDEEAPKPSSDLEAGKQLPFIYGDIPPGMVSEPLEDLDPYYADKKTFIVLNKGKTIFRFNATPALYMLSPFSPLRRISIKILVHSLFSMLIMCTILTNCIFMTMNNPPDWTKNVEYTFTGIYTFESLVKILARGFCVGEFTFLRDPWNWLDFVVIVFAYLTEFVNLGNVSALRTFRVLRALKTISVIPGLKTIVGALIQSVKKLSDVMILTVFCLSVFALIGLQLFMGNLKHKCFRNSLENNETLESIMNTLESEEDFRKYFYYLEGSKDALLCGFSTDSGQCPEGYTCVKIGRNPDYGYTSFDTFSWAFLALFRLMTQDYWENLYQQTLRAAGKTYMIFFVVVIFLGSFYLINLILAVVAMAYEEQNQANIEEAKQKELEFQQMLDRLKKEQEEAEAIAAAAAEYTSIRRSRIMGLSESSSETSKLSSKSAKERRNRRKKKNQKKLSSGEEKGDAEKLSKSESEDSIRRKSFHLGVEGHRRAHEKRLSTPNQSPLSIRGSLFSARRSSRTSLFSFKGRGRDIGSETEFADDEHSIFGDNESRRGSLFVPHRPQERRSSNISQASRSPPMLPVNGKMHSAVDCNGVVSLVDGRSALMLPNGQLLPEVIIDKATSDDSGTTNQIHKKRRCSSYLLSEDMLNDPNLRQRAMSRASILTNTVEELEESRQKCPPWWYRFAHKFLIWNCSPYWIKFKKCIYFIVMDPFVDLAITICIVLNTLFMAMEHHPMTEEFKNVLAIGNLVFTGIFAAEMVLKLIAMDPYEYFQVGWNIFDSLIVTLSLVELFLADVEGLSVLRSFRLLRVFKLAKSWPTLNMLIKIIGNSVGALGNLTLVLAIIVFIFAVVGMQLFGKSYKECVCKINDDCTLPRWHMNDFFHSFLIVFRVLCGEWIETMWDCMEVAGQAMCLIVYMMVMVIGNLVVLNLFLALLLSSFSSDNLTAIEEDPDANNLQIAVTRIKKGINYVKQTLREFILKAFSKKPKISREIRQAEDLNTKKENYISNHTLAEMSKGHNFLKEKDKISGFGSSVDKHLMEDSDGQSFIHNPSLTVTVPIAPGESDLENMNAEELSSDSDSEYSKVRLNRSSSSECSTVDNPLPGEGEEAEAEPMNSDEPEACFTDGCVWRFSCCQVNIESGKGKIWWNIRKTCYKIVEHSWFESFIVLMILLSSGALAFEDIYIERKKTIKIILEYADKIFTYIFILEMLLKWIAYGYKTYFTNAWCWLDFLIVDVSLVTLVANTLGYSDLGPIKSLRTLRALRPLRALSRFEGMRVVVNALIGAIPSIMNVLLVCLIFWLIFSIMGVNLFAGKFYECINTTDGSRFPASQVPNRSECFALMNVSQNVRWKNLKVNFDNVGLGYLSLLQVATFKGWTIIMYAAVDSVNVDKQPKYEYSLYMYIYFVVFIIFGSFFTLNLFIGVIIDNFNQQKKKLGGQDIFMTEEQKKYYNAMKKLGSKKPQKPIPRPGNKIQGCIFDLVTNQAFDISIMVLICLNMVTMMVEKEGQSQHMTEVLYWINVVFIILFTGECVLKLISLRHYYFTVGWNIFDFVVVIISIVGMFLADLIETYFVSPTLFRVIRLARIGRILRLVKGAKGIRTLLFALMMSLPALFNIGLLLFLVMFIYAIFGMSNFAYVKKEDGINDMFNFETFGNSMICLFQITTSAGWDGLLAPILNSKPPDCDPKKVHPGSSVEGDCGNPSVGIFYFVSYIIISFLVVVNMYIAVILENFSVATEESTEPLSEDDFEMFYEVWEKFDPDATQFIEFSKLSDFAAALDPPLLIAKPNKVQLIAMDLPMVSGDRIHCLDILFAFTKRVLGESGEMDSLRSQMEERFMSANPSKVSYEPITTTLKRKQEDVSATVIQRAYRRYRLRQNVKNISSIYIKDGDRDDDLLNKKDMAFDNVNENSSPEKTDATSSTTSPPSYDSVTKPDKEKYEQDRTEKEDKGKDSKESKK
Protocol: Binding of this radioligand was preformed in 5 mL borosilicate glass test tubes at room temperature. […] Non-specific binding was determined in the presence of 1 uM unlabelled compound. […] [3H]compound bound to filters was quantified by liquid scintillation counting.

As for `CS(=O)(=O)NC(=O)c1cc(C2CC2)c(CN2CCC(Oc3ccc(Cl)cc3)CC2)cc1F` [US9694002, 503], the concentration for half-maximal inhibition (IC50) was determined as 30 nM.
The same measure for `O=C(NS(=O)(=O)C1CC1)c1cc(C2CC2)c(CN2CCC(Oc3ccc(Cl)cc3)CC2)cc1F` [US9694002, 504]: 16 nM.
